These results are taken from patent US8691760B2, “Peptides, pharmaceutical compositions comprising same and uses thereof” (priority 2009, dated 2014).

“And” between values parts separate entries of the source, which are not always exact repeats. Equal values may be shown once. “Also recorded” adds a separate entry of the source. Read-outs that look alike come from different tables or passages of the source. Ends that are not written are not given here. Peptide text beside a SMILES is read from it.

The target of one data set is T1, rat recombinant IDE (Rattus norvegicus, UniProt P35559).
T1 construct: purchased Calbiochem (InnoZyme Insulysin/IDE Immunocapture Activity Assay Kit) CBA079
Description: Fluorometric IDE activity assay (InnoZyme Insulysin/IDE Immunocapture Activity Assay Kit, FRET substrate). The settings on record: 16 hours at 37° C.; for IC50: 3 repeated experiments. Type of data set: biochemical. As to the method:
For example, one method that may be used (as described in detail in Example 2, of the Examples section which follows) comprises the use of Insulysin/IDE Immunocapture Activity Assay Kit (available e.g. from InnoZyme™, Calbiochem). Using this kit ELISA plates are first coated with the target enzyme (i.e. IDE) and then the plates are incubated with the synthesized peptide. The enzymatic activity is measured in comparison to wells without the peptide using for example a FRET substrate, Mca-[…]-EDDnp (SEQ ID NO: 11). Cleavage of the scissile amide bond between R and K releases the fluorophore from the quenching molecule, Dnp, resulting in an increase in fluorescence. The increase in fluorescence is measured using an excitation wavelength of 320 nm and an emission wavelength of 405 nm.
In order to measure IDE activity, coating of ELISA plates with the target enzyme (i.e. IDE) was carried out. Next, plates were incubated with the selected synthesized peptide candidate and the enzymatic activity was measured as compared to wells without the peptide candidate. This was carried out using InnoZyme™ Insulysin/IDE Immunocapture Activity Assay Kit from Calbiochem (worldwidewebdotmerckbiosciencesdotcom/Products/pdsdotaspquestionmarkcatnoequal CBA079), a specific and sensitive assay for measuring active IDE in cell lysates, tissue extracts and biological fluids.
Peptide ability to inhibit IDE activity was measured using InnoZyme™ Insulysin/IDE Immunocapture activity assay kit (Calbiochem), an affinity purified polyclonal antibody that recognized human, mouse, and rat insulysin, immobilized on a 96-well plate to capture the enzyme. In brief, rat recombinant IDE (1.14 nM) was incubated with increasing amounts of the candidate inhibitors with doses ranging from 1-100 μM for 16 hours at 37° C. and the activity of captured IDE was measured using a FRET substrate, Mca-[…]-EDDnp (SEQ ID NO: 11). Cleavage of the scissile amide bond between R and K released the fluorophore from the quenching molecule, Dnp, resulting in an increase in fluorescence. The increase in fluorescence was measured using an excitation wavelength of 320 nm and an emission wavelength of 405 nm. As a control, the kit used rat recombinant IDE. IC50 were evaluated following three repeated experiments.
Specifically, rat recombinant IDE (1.14 nM) was incubated with different doses of ADT-21 ([…]) for 16 hours at 37° C. and the activity of the captured insulysin (IDE) was measured using a FRET substrate, Mca-[…]-EDDnp (SEQ ID NO: 11) using Florolog with the following parameters Ex=320 nm, Gm=405 nm, Slit=2, Maximum trails=10, Integration time=1, Target standard deviation=1%.

For data set [1], the target named is IDE (Rattus norvegicus, UniProt P35559). Description: In vitro insulin degradation assay (bovine insulin + IDE, insulin ELISA). It counts as biochemical. The following applies: ADT21 0.2 nM; insulin 0.87 nM, IDE 1.14 nM, 16 hours at 37° C. As to the method:
Insulin (0.87 nM) isolated from bovine pancreas (SIGMA) was incubated for 16 hours at 37° C. in the presence or absence of IDE (1.14 nM) together with the inhibitors (0.002-0.2 nM). The levels of insulin degradation were analyzed using mouse insulin ELISA kit (Mercodia).
In order to verify that ADT21 reduces degradation of insulin by IDE, inventors incubated bovine insulin for 16 hours at 37° C. with or without IDE (1.14 nM) along with ADT21. The levels of insulin degradation were analyzed using a mouse insulin ELISA kit (as described in the “materials and experimental procedures” section above). […] Therefore, inventors speculated that the use of this inhibitor in vivo would delay insulin degradation without preventing IDE activity.
Background: An ELISA detects its analyte on a solid surface through an enzyme-linked reagent.

Data set [2] deals with NOD mice. Description: Blood insulin levels in NOD mice at 30 weeks (HTRF Insulin assay). The settings on record: serum. It counts as in vivo, mouse. From the text: (§1) A NOD mouse model has been used as previously described as a model for insulin dependent diabetes mellitus (IDDM) [Atkinson et al., (1990) Diabetes 39, 933-937]. Diabetes in NOD (NOD/ShiLtJ) mice is characterized by insulitis and marked decreases in pancreatic insulin content that occurred in females at about 15 weeks of age. The animals were monitored carefully when receiving the different treatments. Onset of diabetes was marked by moderate glycosuria and by non-fasting plasma glucose higher than 250 mg/dl.
(§2) 12 week old NOD mice were divided into two groups of 10-12 mice each, receiving, every other day, nasal administration of 10 μl of the respective peptide (3.76 μg/kg) or control PBS.
Mice were monitored for insulin blood levels at 30 week using HTRF® Insulin assay (Cisbio bioassays).
In general terms: Time-resolved FRET reads energy transfer from a long-lived donor to a nearby acceptor.

The test system of another data set is CD4+ T-cells. Description: Co-culture of CD4+ T-cells of insulin-immunized NOD mice with spleen cells, IFN-γ and IL-17 ELISA. The following applies: co-culture with 10 μg/ml insulin, with or without 100 nM ADT21, 48 h. It counts as cell-based, mouse. As to the method:
(§3) Secretions of IFN-γ and IL-17 were measured in 48 hour cultured supernatants by ELISA. Briefly, 96 well plates were coated overnight with 1.5 μg/ml capture antibody (R&D Systems). Supernatants (as described above) were incubated overnight and detection biotinylated antibody (1 μg/ml, R&D Systems) was added for 1 hour. Plates were covered for 30 minutes with avidin-HRP conjugate and […] was used as a substrate for color development. 1M H2SO4 was used as a stop solution. Plates were measured using an ELISA plate reader at 405 nm.
NOD mice were immunized subcutaneously (s.c.) with bovine insulin (SIGMA) (n=6-7). 10 days later, CD4+ T-cells were isolated from the spleens of these mice using magnetic beads for negative selection (Miltenyi Biotec). The CD4+ T cells were co-cultured at a concentration of 1×10^6 cells/well in 96-well plates at a ratio of 1:1 with cells obtained from spleens of non immunized NOD mice (n=5). The co-culture was incubated with 10 μg/ml insulin with or without 100 nM ADT21. Supernatants were collect after 48 h of co-culture for cytokine measurements by ELISA for IL-17 and IFN-γ.

The subject of data set [3] is NOD mice. As to the kind of experiment: Degree of insulitis, histological analysis of the pancreas of NOD mice. It counts as in vivo, mouse. The following applies: NOD mice at 30 weeks, vs PBS-treated group. From the text:
Randomly selected animals from each group (at 30 weeks) were sacrificed and the pancreas of each was examined in a double-blind fashion for insulitis using histological analysis of the pancreas as previously described [Frenkel et al. (2003) J Immunol 171, 6549-6555]. Six to ten islets per mouse were individually scored by two independent observers using a semi-quantitative scale ranging from 0-4 as follows: 0, normal islet with no sign of T cell infiltration; 1, islet associated with perivascular, periductal leukocytic infiltration only; 2, more extensive peri-islet infiltration, but with lymphocytes with less than 25% islet destruction; 3 more than 25% islet destruction; and 4, complete islet destruction.

For data set [4], the system named is splenocytes obtained from NOD mice. As to the kind of experiment: IFN-γ and IL-17 secretion from splenocytes of ADT21-treated NOD mice (ELISA). It counts as in vivo, mouse. The following applies: splenocytes of treated NOD mice (30 weeks), incubated with insulin 48 hours. The method, then:
Splenocytes were obtained from NOD mice at the age of 30 weeks. Splenocytes were obtained from both control and ADT21-treated mice. Splenocytes were cultured in T cell medium buffer and plated at 1×10^6 cells per well with and without bovine insulin (Sigma) for 48 hours as previously described [Frenkel et al. (2003) J Immunol 171, 6549-6555].
as §3

Data set [5] concerns NOD mice. As to the kind of experiment: NOD mouse model of insulin dependent diabetes mellitus, nasal administration, blood glucose / diabetes onset. It counts as in vivo.
From the text: as §1, §2
Mice were monitored for blood glucose levels weekly using glucose test strip (Elite, BAYER).

Data set [6] relates to NOD mice. As to the kind of experiment: IGF-1 blood level in NOD mice at 30 weeks (AssayMax mouse IGF1 kit). Type of data set: in vivo. The text has this: NOD mice were monitored for the blood level of Insulin growth factor 1 (IGF-1) at 30 weeks using AssayMax mouse IGF1 kit.
Data set [7] concerns the target IDE (Homo sapiens, UniProt P14735). Description: Blocking of VZV gE interaction with IDE. The settings on record: data not shown. Type of data set: binding.
Where [8] appears, read: IC50, rat recombinant IDE 1.14 nM, FRET substrate Mca-GGFLRKHGQ-EDDnp.

T1 sequence (P35559 whole entry): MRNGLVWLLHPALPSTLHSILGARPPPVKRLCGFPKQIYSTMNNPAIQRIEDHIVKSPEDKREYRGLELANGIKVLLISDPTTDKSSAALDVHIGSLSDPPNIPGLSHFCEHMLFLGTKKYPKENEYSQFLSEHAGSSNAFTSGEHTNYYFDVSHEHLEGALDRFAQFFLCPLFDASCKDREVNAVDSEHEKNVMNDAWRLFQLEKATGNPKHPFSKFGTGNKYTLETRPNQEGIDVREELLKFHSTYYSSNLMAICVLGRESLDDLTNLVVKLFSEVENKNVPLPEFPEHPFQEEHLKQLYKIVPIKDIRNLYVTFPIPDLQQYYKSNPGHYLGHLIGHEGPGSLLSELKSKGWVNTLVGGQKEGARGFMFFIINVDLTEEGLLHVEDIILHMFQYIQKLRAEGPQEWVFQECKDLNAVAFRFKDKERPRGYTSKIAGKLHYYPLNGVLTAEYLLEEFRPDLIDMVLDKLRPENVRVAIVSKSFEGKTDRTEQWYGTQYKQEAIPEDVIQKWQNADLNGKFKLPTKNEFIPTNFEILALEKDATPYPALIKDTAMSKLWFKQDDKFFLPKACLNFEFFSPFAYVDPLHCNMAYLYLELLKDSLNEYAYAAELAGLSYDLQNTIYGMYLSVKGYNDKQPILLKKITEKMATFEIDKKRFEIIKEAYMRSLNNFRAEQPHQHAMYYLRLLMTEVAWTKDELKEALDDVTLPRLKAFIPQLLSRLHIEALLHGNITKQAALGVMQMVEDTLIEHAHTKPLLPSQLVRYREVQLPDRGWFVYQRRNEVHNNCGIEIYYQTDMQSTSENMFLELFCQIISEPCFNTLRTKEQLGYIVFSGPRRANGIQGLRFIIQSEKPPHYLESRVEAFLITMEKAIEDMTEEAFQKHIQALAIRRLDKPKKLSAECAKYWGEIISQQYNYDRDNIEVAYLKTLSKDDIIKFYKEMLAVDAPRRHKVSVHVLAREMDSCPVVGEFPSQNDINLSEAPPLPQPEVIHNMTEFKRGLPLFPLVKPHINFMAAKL
Sequence of IDE (Rattus norvegicus, UniProt P35559) (P35559 whole entry): as above

The term IC50 denotes the concentration needed to halve the response being measured. Regarding ITNPGSGGSSKLVFDDFAED [ADT44], on rat recombinant IDE (setting [8]), the IC50 turned out to be 545 nM.

KLVFDDFAED [ADT5, KLVFDDFAED]: the IC50 on rat recombinant IDE (setting [8]) was determined as 552 nM.

On to `N[C@@H](CC(=O)O)C(=O)N[C@@H](CC(=O)O)C(=O)O` [ADT-31, DD] (H-Asp-Asp-OH), for which, on rat recombinant IDE (rat recombinant IDE 1.14 nM, FRET substrate Mca-[…]-EDDnp, read-out: IC50), the IC50 was determined as 736 nM.

In the case of EALYDDLVCG [ADT2], the half-maximal inhibitory concentration (IC50) on rat recombinant IDE (setting [8]) came out at 230 nM.

As to HSQGGSGGSSFVQWDDLMN [ADT24], the 50% inhibitory concentration (IC50) at rat recombinant IDE (setting [8]) came out at 175 nM.

On to ITNPGSGGSSVLRYDDFHTD [ADT21], for which the “reduction of insulin degradation by IDE” value at IDE [1] was 400%. Further, in the data set with NOD mice [2] (printed: compared to sick NOD mice), the “blood insulin level relative to reference NOD mice” value is listed as 62%. The “increase in blood insulin” value in the data set with NOD mice [2] (vs control group) is on record as “about 400%”. In addition, the “release of IFN-γ” value in the data set on CD4+ T-cells (p<0.01) was “dose dependant reduction”. The “release of IL-17” value in the data set on CD4+ T-cells (p<0.05) is given as “dose dependant reduction”. Also, the IC50 at rat recombinant IDE (setting [8]) is 100 nM and 10 to 200 nM. Moreover, at rat recombinant IDE (rat recombinant IDE 1.14 nM), the “inhibition of IDE activity (in words)” value was “dose dependent and high efficacy in inhibition of IDE activity; also recorded: inhibits IDE activity in a dose dependant manner”. Further, the “infiltration of T cells in pancreatic islets (insulitis)” value with NOD mice [3] is given as “significantly less infiltration of T cells”. Besides, the “reduction in the levels of IL-17” value in data set [4] amounted to 52%. In addition, in the data set on NOD mice [5] (NOD mice treated from 12 weeks, every other day, 3.76 μg/kg (94 ng/day), untreated: 15 weeks), the “age at first conversion to diabetes” value worked out at 20 weeks. For the same compound, in the data set on NOD mice [5] (NOD mice, every other day), the “behavioral changes that might indicate toxicity (body weight, eating habits, tail tone, mobility)” value was “no behavioral changes”. In the data set with NOD mice [5] (NOD mice, every other day from 12 weeks, 71% of control mice diabetic), the “animals remaining disease-free at 30 weeks” value amounted to 75%. In addition, the “disease progression (in words)” value in the data set with NOD mice [5] (NOD mice, every other day, vs PBS, P<0.05) is recorded as “significantly delayed”. Further, in the data set on NOD mice [6] (IGF1 below the basal level (about 1000 ng/ml in wild type mice)), the “toxic effect related to IGF1 elevation” value was “no toxic effect was observed”. Moreover, the IGF1 blood level in the data set on NOD mice [6] (NOD mice at 30 weeks, control NOD mice 33 ng/ml) was 440 ng/mL.

For the compound ITNPGSGGSSLANFDDLVHSSNN [ADT42], the concentration for half-maximal inhibition (IC50) on rat recombinant IDE (setting [8]) is 199 nM.

For the compound ITNPGSGGSSEALYDDLVCG [ADT41], the IC50 at rat recombinant IDE (setting [8]) is 331 nM.

With KCNTGSGGSSVLRYDDFHTD [ADT61], the IC50 on rat recombinant IDE (setting [8]) was determined as 824 nM.

As for VLRYDDFHTD [ADT1], the IC50 on rat recombinant IDE (setting [8]) came to 145 nM.

Consider LANFDDLVHSSNN [ADT3], for which the IC50 on rat recombinant IDE (setting [8]) was 788 nM.

Regarding VLRYNNFHTD [ADT5N], the “inhibition of IDE activity (in words)” value on rat recombinant IDE (rat recombinant IDE 1.14 nM) is “prevented the inhibition of IDE”.

DAEFGSGGSSKLVFDDFAED [ADT25]: the concentration for half-maximal inhibition (IC50) at rat recombinant IDE (setting [8]) amounted to 604 nM.

With HSQGGSGGSSEALYDDLVCG [ADT72], the IC50 at rat recombinant IDE (setting [8]) stood at 118 nM.

Turning to EALYLVCG [INS, reference compound], the 50% inhibitory concentration (IC50) at rat recombinant IDE (setting [8]) was 465 nM.

For KCNTGSGGSSLANFDDLVHSSNN [ADT23], at rat recombinant IDE (setting [8]), the concentration for half-maximal inhibition (IC50) came to 616 nM.

With “VZV gE (24-50): synthetic peptide corresponding to amino acids 24-50 of VZV gE (ITNPVRASVLRYDDFHTDEDKLDTNSV; A peptide sequence derived from VZV gE (24-50))”, the “blocking of VZV gE interaction with IDE” value with IDE [7] is listed as “blocked VZV gE interaction with IDE in a concentration dependent manner”.

As for HSQGGSGGSSVLRYDDFHTD [ADT71], at rat recombinant IDE (setting [8]), the IC50 came out at 1390 nM.

With FVNQGSGGSSVLRYDDFHTD [ADT51], the IC50 on rat recombinant IDE (setting [8]) was 494 nM.

Take “ITNPVRASVLRYDDFHTD [VZV, reference compound]”: at rat recombinant IDE (setting [8]), the half-inhibitory concentration (IC50) came out at 450 nM.

On to DAEFGSGGSSEALYDDLVCG [ADT82], for which the 50% inhibitory concentration (IC50) on rat recombinant IDE (setting [8]) came to 438 nM.
